The target of one assay is T1, human MR (Homo sapiens, UniProt P08235).
T1 construct: The full length human MR gene is cloned from a human kidney or human brain cDNA library; His tag from the pAcHLT vector (own knowledge); made in house; host or cells: Sf9 insect cells (baculovirus, pAcHLT transfer vector)
T1 sequence (P08235 1-984): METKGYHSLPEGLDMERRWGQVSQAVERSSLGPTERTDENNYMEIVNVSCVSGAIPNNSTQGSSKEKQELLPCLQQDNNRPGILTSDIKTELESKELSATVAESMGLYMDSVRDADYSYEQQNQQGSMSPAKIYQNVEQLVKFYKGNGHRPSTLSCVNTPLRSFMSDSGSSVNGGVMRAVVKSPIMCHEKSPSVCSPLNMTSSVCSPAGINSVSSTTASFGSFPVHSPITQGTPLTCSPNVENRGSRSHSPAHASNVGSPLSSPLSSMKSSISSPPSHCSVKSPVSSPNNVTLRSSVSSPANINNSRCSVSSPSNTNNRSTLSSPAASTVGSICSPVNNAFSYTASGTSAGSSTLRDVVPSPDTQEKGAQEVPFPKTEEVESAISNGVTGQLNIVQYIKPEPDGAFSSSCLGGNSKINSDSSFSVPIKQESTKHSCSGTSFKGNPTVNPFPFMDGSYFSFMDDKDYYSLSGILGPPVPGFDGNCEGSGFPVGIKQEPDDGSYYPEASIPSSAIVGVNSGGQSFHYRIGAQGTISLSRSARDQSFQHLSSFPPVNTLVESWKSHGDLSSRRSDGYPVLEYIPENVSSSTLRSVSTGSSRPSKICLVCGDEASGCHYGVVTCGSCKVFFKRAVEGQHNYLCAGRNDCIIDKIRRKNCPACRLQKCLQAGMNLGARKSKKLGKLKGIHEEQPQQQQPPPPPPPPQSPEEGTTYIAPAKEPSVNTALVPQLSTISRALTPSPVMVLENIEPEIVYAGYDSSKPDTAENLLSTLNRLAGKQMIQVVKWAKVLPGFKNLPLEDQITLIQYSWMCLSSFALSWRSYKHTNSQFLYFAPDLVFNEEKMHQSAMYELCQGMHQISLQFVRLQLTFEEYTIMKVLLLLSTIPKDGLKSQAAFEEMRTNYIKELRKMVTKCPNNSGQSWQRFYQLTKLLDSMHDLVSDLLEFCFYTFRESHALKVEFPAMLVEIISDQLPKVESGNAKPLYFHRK
The assay is described as follows: Mineralocorticoid Receptor Binding Assay ([3H]-aldosterone). Conditions: [3H]-aldosterone binding, human MR expressed in Sf9 cells; read-out: MR Ki. As for the experimental part:
(§1) All ligands, radioligands, solvents, and reagents employed in the binding assays are readily available from commercial sources, or can be readily synthesized by the ordinarily skilled artisan.
The full length human MR gene is cloned from a human kidney or human brain cDNA library. […] The PCR reaction is performed in a final volume of 50 μl containing about 1 μl of a 50× stock solution of polymerase; about 1 μl of a 50× stock solution of dNTP; about 5 μl of an appropriate PCR buffer; about 1 μl of each primer; about […] of a H. kidney or H. brain cDNA library; and about 36 μl of water. The reaction is allowed to denature for about 30 seconds at 95 degrees Celsius, anneal for about 30 seconds at 55 degrees Celsius, and extend for about 5 minutes at 72 degrees Celsius, the sequence being repeated for a total of about 35 cycles. […] To extract the cDNA product from the agarose gel, the QIAEX II Gel Extraction protocol (QIAGEN, Inc.) is employed according to the manufacturer's instructions. Following extraction, the MR cDNA is cloned into an appropriate cloning vector (Zero Blunt TOPO PCR Cloning Kit Invitrogen, Inc.) and a pAcHLT-baculovinis transfer vector (B.D./Pharminogen), then expressed in SF9 insect cells, essentially according to manufacturer's instructions. Sf9 cells are grown at a scale where gram quantity cell pellets are obtained for subsequent use in the MR binding assay. Harvested cell pellets are lysed by repeated freeze-thaw cycles (about 4) in a suitable lysis buffer then centrifuged at about 1×10^3 G (with the supernatant being saved for future assays).
MR binding assays are performed in a final total volume of about 250 μl containing about 20-25 μg of protein and 0.5 nM of [^3H]-aldosterone plus varying concentrations of test compound or vehicle. The assay binding buffer consists of 30 mM sodium molybdate, 30 mM of TRIS-HCl, 5 mM sodium phosphate, 5 mM sodium pyrophosphate, and about 10% glycerol, pH=7.5.
Incubations are carried out at 4 degrees Celsius with shaking for about 16 hours. 200 μl aliquots of each incubation are filtered onto Millipore HA 0.45 micron 96-well filter plates, pre-moistened with cold 30 mM TRIS-HCl. The filter plates are suctioned dry with vacuum and immediately washed 3× with cold 30 mM TRIS-HCl. The plates are then punched out and the amount of receptor-ligand complex is determined by liquid scintillation counting using 4 ml of Ready Protein Plus™ liquid scintillation cocktail.
IC50 values (defined as the concentration of test compound required to decrease [^3H]-aldosterone binding by 50%/o) are then determined.

The next assay deals with T2, glucocorticoid receptor (Homo sapiens, UniProt P04150).
T2 construct: containing 50-200 ug of A549 cell extract and 1.86 nM [^3H]-dexamethasone; host or cells: A549 human lung epithelial cells (sonicated cell extract)
T2 sequence (P04150 1-777): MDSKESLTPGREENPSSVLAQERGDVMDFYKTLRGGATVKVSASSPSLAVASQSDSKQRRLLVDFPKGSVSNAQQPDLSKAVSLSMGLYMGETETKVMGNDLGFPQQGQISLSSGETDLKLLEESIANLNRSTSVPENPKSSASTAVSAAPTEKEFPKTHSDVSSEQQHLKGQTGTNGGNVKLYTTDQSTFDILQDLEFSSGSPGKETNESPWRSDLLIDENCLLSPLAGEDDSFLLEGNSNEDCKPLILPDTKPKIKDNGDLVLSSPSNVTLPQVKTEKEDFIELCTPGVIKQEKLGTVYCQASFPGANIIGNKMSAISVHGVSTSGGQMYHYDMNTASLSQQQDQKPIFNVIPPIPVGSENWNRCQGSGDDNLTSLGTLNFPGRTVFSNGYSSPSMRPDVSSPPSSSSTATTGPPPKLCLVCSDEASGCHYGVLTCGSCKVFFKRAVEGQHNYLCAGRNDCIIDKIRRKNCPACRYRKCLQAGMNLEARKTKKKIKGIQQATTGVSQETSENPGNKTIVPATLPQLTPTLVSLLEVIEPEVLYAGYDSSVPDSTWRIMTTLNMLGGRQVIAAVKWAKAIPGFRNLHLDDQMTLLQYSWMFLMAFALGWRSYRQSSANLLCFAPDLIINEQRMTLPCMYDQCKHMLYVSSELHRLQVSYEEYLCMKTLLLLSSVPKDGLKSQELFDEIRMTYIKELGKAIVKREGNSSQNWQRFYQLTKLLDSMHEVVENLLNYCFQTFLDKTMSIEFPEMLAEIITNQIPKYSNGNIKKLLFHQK
Description: Glucocorticoid Receptor Binding Assay ([3H]-dexamethasone, A549 cell extract). Conditions: [3H]-dexamethasone binding, read-out: GR Ki. Here is the method: as §1
A549 human lung epithelial cells (ATCC) are grown at a scale where gram quantity cell pellets are obtained. Harvested cell pellets are washed twice in cold phosphate buffered saline, centrifuged, and resuspended in cold assay binding buffer. The assay binding buffer consists of 10% glycerol, 50 mM Tris-HCl (pH7.2), 75 mM sodium chloride, 1.5 mM magnesium chloride, 1.5 mM EDTA, and 10 mM sodium molybdate. Cell suspensions were lysed via sonication, centrifuged, and the “extract” supernatant is snap frozen and stored at −80 C until needed.
GR binding assays are performed in a final volume of 140 ul containing 50-200 ug of A549 cell extract and 1.86 nM [^3H]-dexamethasone (Amersham) plus varying concentrations of test compound or vehicle. Briefly, assays are prepared at RT in 96-well Fisher 3356 plates, each well containing 100 ul of A549 cell extract, 20 ul of [^3H]-dexamethasone, and 20 ul of test compound/vehicle. Incubations are carried out at 4 degrees Celsius for 16 hours. After incubation, 70 ul of 3× dextran-coated charcoal solution is added to each reaction, mixed, and incubated for 8 minutes at RT. 3×-dextran-coated charcoal solution consists of 250 ml assay binding buffer, 3.75 g Norit A charcoal (Sigma), and 1.25 g dextran T-70 (Amersham). Charcoal/unbound radioligand complexes are removed by centrifugation of the plate and 140 ul of supernatant from each well is transferred to another 96 well Optiplate (Packard Instruments). 200 ul of Microscint-20 scinillant (Packard Instruments) is added to each well and amount of receptor bound radioligand is determined using Packard Instruments TopCount instrument.

Where only a bound is given, the exact number is not on record here.

As a reminder, the Ki is a dissociation constant, usually derived from enzyme kinetics or from competition with a known ligand. `Cc1c(C=C2c3ccccc3CCc3ccccc32)cccc1NS(C)(=O)=O` [Example 48, N-[3-(10,11-Dihydro-dibenzo[a,d]cyclohepten-5-ylidenemethyl)-2-methyl-phenyl]-methanesulfonamide]: the Ki at human MR and at glucocorticoid receptor was less than 500 nM each time.
As to `O=c1[nH]c2cc(C=C3c4ccccc4C4CC4c4ccccc43)ccc2s1` (stereo not shown) [Example 605], the Ki on human MR and at glucocorticoid receptor was less than 500 nM each time.
For `O=c1[nH]c2cc(/C=C3\c4ccccc4COc4cc(F)ccc43)ccc2n1CCN1CCCC1` [Example 646], the Ki at human MR is less than 500 nM; at glucocorticoid receptor it was less than 1000 nM.
The corresponding values for `CS(=O)(=O)Nc1cccc(C=C2c3ccccc3CCc3cc(OCCN4CCOCC4)ccc32)c1` [Example 427] are less than 500 nM and less than 10000 nM.
Take `Nc1cccc(/C=C2\c3ccc(F)cc3CCc3ncccc32)c1` [Example 532]: the results for the Ki on human MR and on glucocorticoid receptor were less than 500 nM and less than 1000 nM, respectively.
The like results for `CS(=O)(=O)Nc1cccc(C(=C2c3ccccc3CCc3ccccc32)c2ccc(-c3ccccc3)cc2)c1` [Example 767] were, in that order, less than 500 nM and less than 500 nM.
Take `COc1ccc2c(c1)OCc1ccccc1C2=Cc1ccc2[nH]c(=O)[nH]c2c1` [Example 639]: the Ki on human MR was less than 500 nM; at glucocorticoid receptor, less than 10000 nM.
The like results for `CS(=O)(=O)Nc1cccc(/C=C2/c3ccccc3CSc3cc(F)ccc32)c1` [Example 745] were, in that order, less than 500 nM and less than 500 nM.
The like results for `O=c1[nH]c2cc(/C=C3/c4ccccc4COc4ccccc43)ccc2o1` [Example 619] were, in that order, less than 500 nM and less than 500 nM.
The corresponding values for `O=c1[nH]c2cc(C=C3c4cccc(F)c4CCc4c(F)cccc43)ccc2o1` [Example 471] are less than 500 nM and less than 500 nM.
For `COc1ccc2c(c1)CSc1ccccc1C2=C(C)c1cccc(NS(C)(=O)=O)c1` [Example 840], the Ki at human MR and on glucocorticoid receptor was less than 500 nM each time.
For `COc1ccc2c(c1)CCc1cc(C)ccc1C2=C(C)c1cccc(NS(C)(=O)=O)c1` [Example 827], the inhibitory constant (Ki) at human MR and on glucocorticoid receptor was less than 500 nM in each case.
With `Oc1cccc(/C=C2/c3ccccc3CCc3c(O)cccc32)c1` [Example 377], the inhibitory constant (Ki) on human MR was less than 500 nM; on glucocorticoid receptor, less than 10000 nM.
Consider `N#Cc1ccc(C=C2c3ccccc3CCc3ccccc32)cc1` [Example 82, 4-(10,11-Dihydro-dibenzo[a,d]cyclohepten-5-ylidenemethyl)-benzonitrile], for which the Ki is less than 500 nM at human MR and less than 1000 nM at glucocorticoid receptor.
In the case of `COc1cccc2c1COc1ccccc1/C2=C\c1cccc(NS(C)(=O)=O)c1` [Example 707], the Ki on human MR and at glucocorticoid receptor was less than 500 nM in each case.
On to `O=S(=O)(Nc1cccc(C=C2c3ccccc3CCc3cc(Cl)ccc32)c1)c1ccc(Cl)c(Cl)c1` [Example 294], for which the inhibition constant (Ki) was less than 500 nM at human MR and less than 10000 nM at glucocorticoid receptor.
The corresponding values for `NC(=O)Nc1cccc(C=C2c3ccccc3CCc3ccccc32)c1` [Example 128, [3-(10,11-Dihydro-dibenzo[a,d]cyclohepten-5-ylidenemethyl)-phenyl]-urea] are less than 500 nM and less than 1000 nM.
The like results for `Fc1ccc2c(c1)CCc1ncccc1/C2=C/c1ccc(C(F)F)cc1` [Example 543] were, in that order, less than 500 nM and less than 10000 nM.
The like results for `CS(=O)(=O)Nc1cccc(C=C2c3ccc(F)cc3CCc3cc(F)ccc32)c1` [Example 360] were, in that order, less than 500 nM and less than 1000 nM.
As to `C/C(=C1/c2ccccc2COc2cc(F)ccc21)c1cccc(NS(C)(=O)=O)c1` [Example 807], the inhibitory constant (Ki) at human MR and at glucocorticoid receptor was less than 500 nM each time.
For `Nc1cccc(C=C2c3ccccc3CCc3ccsc32)c1` [Example 498], the results for the Ki on human MR and at glucocorticoid receptor were less than 500 nM and less than 1000 nM, respectively.
The like results for `COc1cccc2c1COc1ccccc1/C2=C/c1cccc(NS(C)(=O)=O)c1` [Example 708] were, in that order, less than 500 nM and less than 500 nM.
The like results for `Nc1cccc(C=C2c3ccccc3CCc3cc(Cl)ccc32)c1` (mixture of isomers) [Example 289, 3-(2-Chloro-10,11-dihydro-dibenzo[a,d]cyclohepten-5-ylidenemethyl)-phenylamine] were, in that order, less than 500 nM and less than 1000 nM.

The values above are taken from patent US20060063759A1, “Tricyclic steroid hormone nuclear receptor modulators” (priority 2002, published 2006).
